The target of one series is Jak2 (Homo sapiens, UniProt O60674). Nature of the series: Z'-LYTE in vitro kinase assay. The class given is biochemical. Particulars: mean ±SEM.
The target in another series is T1, Aurora A (Homo sapiens, UniProt O14965).
T1 construct: made in house; host or cells: Escherichia coli BL21-Codon Plus (DE3)
Description: Z'-LYTE in vitro kinase assay. It is filed as biochemical. Particulars: mean ±SEM. Here is the method: (§1) The recombinant Auror, B-Raf, IKKβ, SYK, BCR-Abl, MEK1 and Erk1 proteins were expressed in Escherichia coli strain BL21-Codon Plus (DE3), purified by Ni-NTA Agarose (QIAGEN). The kinase assays were carried out with the Z'-LYTETM Kinase Assay kit using Ser/Thr3 Peptide substrate (Invitrogen). The reactions were carried out according to the Z-LYTE protocol and the results were read on an EnVision plate reader. All reactions were carried out in triplicate. Data were expressed as mean ±SEM.

The next series deals with T2, B-Raf (Homo sapiens, UniProt P15056).
T2 construct: made in house; host or cells: Escherichia coli BL21-Codon Plus (DE3)
Description: Z'-LYTE in vitro kinase assay. The class given is biochemical. Particulars: mean ±SEM. Here is the method:
as §1

Another series deals with BCR-ABL (Homo sapiens, UniProt P00519). Nature of the series: Z'-LYTE in vitro kinase assay. The class given is biochemical. As to the method:
as §1

A further series deals with T3, ERK1 (Homo sapiens, UniProt P27361).
T3 construct: made in house; host or cells: Escherichia coli BL21-Codon Plus (DE3)
Description: Z'-LYTE in vitro kinase assay. It is filed as biochemical. As to the method: as §1

A further series addresses T4, IKKβ (Homo sapiens, UniProt O14920).
T4 construct: made in house; host or cells: Escherichia coli BL21-Codon Plus (DE3)
Description: Z'-LYTE in vitro kinase assay. The note with it: mean ±SEM. It is filed as biochemical. As to the method: as §1

A further series addresses T5, MEK1 (Homo sapiens, UniProt Q02750).
T5 construct: made in house; host or cells: Escherichia coli BL21-Codon Plus (DE3)
Description: Z'-LYTE in vitro kinase assay. It is filed as biochemical. Here is the method: as §1

A further series addresses T6, SYK (Homo sapiens, UniProt P43405).
T6 construct: made in house; host or cells: Escherichia coli BL21-Codon Plus (DE3)
Nature of the series: Z'-LYTE in vitro kinase assay. The class given is biochemical. Here is the method:
as §1

In another series the test system is Vector BaF3 cells. Description: Wst-1 cell survival assay. It is filed as cell-based, murine. The note with it: Mus musculus, Vector BaF3, 24 hrs. The source says:
The reference wavelength was 630 nm.

For a further series, the system named is p53 in HCT116 cells. Nature of the series: p53 protein level by western blot. Particulars: HCT116, 2.5 μM, time-dependent. The class given is cell-based, human. For orientation: A western blot detects proteins with antibodies after separation by electrophoresis.
Series [1] can be described thus: Precipitation in cell cultures. The class given is physicochemical.
Series [2] has as its system intravenously injected BCR-ABL positive BaF3 cells. Description: Lifespan of nude mice after intravenous cell injection. It is filed as in vivo, mouse. Particulars: 2 or 4 mg/kg every day. Here is the method: (§2) For solid tumor models, the mice were injected with 4 mg / kg of Bisindolylmaleimide IX or solvent. The length (L) and width (W) of the tumor were measured by a digital caliper and expressed as tumor volume (0.5 L×W^2, mm^3). The body weight and the lifespan of the mice with intravenous injection of BaF3 cells were monitored every day. For B-Raf knockdown, lentivirus-mediated expressing shRNA against B-Raf was used.

For series [3], the system named is intravenously injected T315I BCR-ABL positive BaF3 cells. The series is described as above. The class given is in vivo, mouse. Particulars: 2 or 4 mg/kg every day. As to the method:
as §2

Another series has as its system HCT116 cells. Nature of the series: Cell cycle analysis by FACS. The class given is cell-based, human. Particulars: HCT116, 24 hrs. As to the method: Cells were seeded on 35-mm dishes and cultured for 24 hrs, reaching 60–70% confluency. The cells were treated with different concentrations of Bisindolylmaleimide IX for 24 or 48 hrs, harvested by trypsinization, resuspended in 200 μl PBS, and fixed in 100% ethanol overnight at 4°C. The fixed cells were pelleted by centrifugation, resuspended in 800 μl PBS containing ribonuclease A (100 μg/ml) and incubated for 30 min at 37°C. Then 10 μl propidium iodide (PI, 4 mg/ml PBS) were added to the samples, which were assessed on a FACSCalibur flow cytometer using Cell Quest software (BD Bioscience).
In general terms: Flow cytometry measures light scatter and fluorescence of single cells or particles in a stream.

Another series concerns BCR-ABL BaF3 cells. Particulars: BCR-ABL BaF3, 24 hrs, compared among bisindolylmaleimide derivatives.
The next series deals with BCR-ABL MEF cells. Description: Wst-1 cell survival assay. The note with it: Mus musculus, 24 h, read-out: IC50, cell survival.
A further series deals with p53 in primary MEFs. Description: p53 protein level by western blot (screen).
The subject of the next series is BCR-ABL in BaF3 cells. Nature of the series: BCR-ABL activation in cells, anti-phospho-Tyr western blot. Particulars: 4 hrs.

Some results are limits rather than exact numbers.

Sequence of BCR-ABL (P00519 27-1130): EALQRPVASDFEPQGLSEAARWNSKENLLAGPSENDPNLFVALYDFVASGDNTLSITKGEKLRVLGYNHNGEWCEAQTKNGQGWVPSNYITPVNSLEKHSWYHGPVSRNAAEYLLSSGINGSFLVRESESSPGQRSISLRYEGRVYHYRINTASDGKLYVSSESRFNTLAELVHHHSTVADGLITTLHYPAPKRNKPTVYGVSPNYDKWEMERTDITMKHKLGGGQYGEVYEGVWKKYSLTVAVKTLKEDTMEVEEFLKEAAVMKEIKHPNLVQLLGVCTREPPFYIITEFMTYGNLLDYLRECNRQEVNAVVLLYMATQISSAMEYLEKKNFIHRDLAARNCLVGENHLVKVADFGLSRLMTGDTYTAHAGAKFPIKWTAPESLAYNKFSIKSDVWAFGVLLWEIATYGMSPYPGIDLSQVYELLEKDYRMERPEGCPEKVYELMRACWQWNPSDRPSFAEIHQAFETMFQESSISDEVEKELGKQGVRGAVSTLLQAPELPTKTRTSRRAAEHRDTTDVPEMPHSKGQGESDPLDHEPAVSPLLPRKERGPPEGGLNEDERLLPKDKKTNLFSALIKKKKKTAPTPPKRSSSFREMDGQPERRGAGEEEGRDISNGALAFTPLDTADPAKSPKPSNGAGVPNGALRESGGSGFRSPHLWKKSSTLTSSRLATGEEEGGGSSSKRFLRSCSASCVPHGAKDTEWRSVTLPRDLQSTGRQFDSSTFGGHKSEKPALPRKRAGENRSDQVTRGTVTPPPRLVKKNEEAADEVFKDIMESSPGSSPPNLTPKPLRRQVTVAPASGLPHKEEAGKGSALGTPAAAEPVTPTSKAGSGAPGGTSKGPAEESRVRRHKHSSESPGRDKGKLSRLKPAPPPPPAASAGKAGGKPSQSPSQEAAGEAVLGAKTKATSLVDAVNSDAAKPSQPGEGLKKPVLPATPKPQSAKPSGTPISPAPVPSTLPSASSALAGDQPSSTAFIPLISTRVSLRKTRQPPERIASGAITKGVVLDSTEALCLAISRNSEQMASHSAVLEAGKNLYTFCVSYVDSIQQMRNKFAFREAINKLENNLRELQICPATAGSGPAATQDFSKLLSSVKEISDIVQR
Sequence of BCR-ABL (P11274 1-927 partner): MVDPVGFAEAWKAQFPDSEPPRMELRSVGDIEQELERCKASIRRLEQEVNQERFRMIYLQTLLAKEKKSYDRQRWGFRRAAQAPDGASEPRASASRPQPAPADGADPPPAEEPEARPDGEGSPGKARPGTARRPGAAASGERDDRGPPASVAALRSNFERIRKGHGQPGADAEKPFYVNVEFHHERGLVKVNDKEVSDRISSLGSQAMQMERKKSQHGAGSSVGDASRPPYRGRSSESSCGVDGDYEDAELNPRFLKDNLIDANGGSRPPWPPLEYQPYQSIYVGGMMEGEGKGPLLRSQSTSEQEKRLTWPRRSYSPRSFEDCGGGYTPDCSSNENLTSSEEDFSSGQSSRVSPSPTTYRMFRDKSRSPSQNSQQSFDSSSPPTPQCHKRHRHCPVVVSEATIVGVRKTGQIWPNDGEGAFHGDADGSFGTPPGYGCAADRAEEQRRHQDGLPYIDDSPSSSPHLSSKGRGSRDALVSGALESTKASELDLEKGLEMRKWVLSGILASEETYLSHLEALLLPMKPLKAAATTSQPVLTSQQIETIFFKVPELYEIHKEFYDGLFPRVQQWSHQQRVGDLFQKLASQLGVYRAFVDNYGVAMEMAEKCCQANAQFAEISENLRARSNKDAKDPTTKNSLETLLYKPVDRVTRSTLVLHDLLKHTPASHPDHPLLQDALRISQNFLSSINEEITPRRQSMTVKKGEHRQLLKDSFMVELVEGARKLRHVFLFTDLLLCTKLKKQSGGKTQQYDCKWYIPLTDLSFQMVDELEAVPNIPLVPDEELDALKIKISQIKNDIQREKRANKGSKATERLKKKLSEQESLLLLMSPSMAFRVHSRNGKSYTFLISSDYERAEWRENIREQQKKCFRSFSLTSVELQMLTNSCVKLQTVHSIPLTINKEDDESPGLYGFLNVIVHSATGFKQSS
T1 sequence (O14965 whole entry): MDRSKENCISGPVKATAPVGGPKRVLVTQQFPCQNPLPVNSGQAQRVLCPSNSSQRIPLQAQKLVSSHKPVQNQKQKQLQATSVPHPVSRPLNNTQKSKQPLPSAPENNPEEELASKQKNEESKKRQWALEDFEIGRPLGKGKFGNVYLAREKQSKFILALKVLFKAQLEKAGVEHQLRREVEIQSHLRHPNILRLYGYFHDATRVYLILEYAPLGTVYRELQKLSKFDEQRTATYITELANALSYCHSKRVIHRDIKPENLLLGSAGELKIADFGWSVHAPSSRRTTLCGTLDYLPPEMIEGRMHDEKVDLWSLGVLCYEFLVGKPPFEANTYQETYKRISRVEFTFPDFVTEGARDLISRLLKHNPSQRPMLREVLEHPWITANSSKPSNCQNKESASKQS
T2 sequence (P15056 whole entry, species assumed): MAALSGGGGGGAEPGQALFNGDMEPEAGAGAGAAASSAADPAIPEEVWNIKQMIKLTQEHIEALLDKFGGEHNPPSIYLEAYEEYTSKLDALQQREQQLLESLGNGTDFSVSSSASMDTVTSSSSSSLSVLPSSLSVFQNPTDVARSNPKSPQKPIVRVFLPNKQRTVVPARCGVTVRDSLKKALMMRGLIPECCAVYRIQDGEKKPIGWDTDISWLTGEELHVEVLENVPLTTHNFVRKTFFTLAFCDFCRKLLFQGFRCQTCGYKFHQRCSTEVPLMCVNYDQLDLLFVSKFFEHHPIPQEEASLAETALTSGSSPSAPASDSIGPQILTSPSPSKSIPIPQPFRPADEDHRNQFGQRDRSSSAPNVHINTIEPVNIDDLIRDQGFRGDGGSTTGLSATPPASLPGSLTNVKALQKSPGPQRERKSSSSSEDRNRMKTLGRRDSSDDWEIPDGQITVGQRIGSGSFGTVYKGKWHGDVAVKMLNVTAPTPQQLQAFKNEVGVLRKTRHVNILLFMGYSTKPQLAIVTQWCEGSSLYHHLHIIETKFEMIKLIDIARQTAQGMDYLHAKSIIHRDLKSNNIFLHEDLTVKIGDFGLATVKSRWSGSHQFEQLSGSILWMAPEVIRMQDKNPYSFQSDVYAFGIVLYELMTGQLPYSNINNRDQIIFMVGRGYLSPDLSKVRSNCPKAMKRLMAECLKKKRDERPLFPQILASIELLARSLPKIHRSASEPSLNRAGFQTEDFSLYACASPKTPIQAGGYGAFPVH
T5 sequence (Q02750 whole entry, species assumed): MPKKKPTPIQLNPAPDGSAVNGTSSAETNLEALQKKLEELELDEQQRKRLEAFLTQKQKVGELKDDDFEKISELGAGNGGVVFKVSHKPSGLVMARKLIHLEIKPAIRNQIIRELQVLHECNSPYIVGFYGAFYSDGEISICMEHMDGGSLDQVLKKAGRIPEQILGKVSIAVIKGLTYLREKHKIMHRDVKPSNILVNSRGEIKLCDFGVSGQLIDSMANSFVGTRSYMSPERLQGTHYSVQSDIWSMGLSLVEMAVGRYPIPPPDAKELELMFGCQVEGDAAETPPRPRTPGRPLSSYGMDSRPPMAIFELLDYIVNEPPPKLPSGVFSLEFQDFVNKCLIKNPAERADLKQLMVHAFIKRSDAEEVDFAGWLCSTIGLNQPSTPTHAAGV
T4 sequence (O14920 whole entry, species assumed): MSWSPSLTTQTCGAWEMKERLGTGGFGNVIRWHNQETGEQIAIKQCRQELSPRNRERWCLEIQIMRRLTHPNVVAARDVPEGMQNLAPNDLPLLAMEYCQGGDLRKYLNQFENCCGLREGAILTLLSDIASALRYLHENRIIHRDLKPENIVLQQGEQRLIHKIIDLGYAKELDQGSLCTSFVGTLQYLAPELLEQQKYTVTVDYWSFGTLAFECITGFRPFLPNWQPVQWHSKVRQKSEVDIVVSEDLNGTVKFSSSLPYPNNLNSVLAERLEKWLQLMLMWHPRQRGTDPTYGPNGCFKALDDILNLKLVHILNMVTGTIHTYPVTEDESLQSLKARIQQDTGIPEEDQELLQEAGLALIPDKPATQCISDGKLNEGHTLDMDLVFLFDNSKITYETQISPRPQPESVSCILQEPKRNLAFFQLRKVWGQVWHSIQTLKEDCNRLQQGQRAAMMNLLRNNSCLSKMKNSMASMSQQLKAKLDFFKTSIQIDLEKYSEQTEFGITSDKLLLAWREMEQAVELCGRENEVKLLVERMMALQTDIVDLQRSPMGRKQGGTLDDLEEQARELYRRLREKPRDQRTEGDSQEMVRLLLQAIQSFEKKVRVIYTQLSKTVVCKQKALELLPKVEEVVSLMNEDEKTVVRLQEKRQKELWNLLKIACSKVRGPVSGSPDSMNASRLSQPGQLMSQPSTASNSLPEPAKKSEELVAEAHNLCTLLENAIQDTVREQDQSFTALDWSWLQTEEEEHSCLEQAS
T3 sequence (P27361 whole entry, species assumed): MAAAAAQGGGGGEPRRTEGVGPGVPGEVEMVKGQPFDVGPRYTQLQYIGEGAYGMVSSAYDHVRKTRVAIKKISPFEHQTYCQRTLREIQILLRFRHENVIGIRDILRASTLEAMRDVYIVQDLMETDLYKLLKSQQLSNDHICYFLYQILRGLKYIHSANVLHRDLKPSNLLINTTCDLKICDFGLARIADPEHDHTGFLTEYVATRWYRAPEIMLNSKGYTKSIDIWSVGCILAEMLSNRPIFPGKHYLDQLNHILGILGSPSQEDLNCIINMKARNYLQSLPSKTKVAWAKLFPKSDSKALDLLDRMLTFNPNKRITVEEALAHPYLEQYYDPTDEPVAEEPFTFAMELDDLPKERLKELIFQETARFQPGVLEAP
Description for BCR-ABL MEF cells: We then evaluated the cytotoxic effect of Bisindolylmaleimide IX in MEFs and HCT116 cells. Different doses of Bisindolylmaleimide IX were applied to the cell cultures and cell survival rates and IC50 were determined with Wst-1 assay.
To measure cell survival rates after Bisindolylmaleimide IX treatment, cells were plated at 1×10^4 in 96 well plates and cultured for overnight, which were then treated with Bisindolylmaleimide IX for 48 hrs. Cell proliferation reagent WST-1 (Roche) was added to each well and was further incubated for 4 hrs at 37°C. The absorbance was measured against a control using microplate reader at 440 nm. The reference wavelength was 630 nm.
Description for BCR-ABL in BaF3 cells: BaF3 cells infected with empty retrovirus or retrovirus expressing BCR-ABL were treated with different doses of Bisindolylmaleimide IX for 4 hrs. Activation and expression of BCR-ABL were determined by western blot. Activation of BCR-ABL was determined by anti-phospho-Tyr antibodies.
Cells were lysed in TNEN buffer (50 mM Tris, 150 mM NaCl, 5 mM EDTA, 0.5% NP-40, and 0.1% Triton X-100) supplemented with 1 mM NaF, Na2VO3, 1 mM PMSF, and 1 μg/ml of aprotonin, leupeptin, and pepstatin A. Protein concentrations were determined using a Bio-Rad assay. Proteins were resolved by SDS-PAGE and transferred to polyvinylidene difluoride membranes (Millipore). […] Antibodies against p-Tyr were from Merck Millipore Corporation.
Description for p53 in primary MEFs: Cells were lysed in TNEN buffer (50 mM Tris, 150 mM NaCl, 5 mM EDTA, 0.5% NP-40, and 0.1% Triton X-100) supplemented with 1 mM NaF, Na2VO3, 1 mM PMSF, and 1 μg/ml of aprotonin, leupeptin, and pepstatin A. Protein concentrations were determined using a Bio-Rad assay. Proteins were resolved by SDS-PAGE and transferred to polyvinylidene difluoride membranes (Millipore).

The term IC50 denotes the concentration at which inhibition is half-maximal. Turning to `CS(=O)(=O)O.Cn1cc(C2=C(c3cn(CCCSC(=N)N)c4ccccc34)C(=O)NC2=O)c2ccccc21` [Bisindolylmaleimide IX, 3-[1-[3-(Amidinothio)propyl]-3-indolyl]-4-(1-methyl-3-indolyl)-1H-pyrrole-2,5-dione methanesulfonate], the IC50 is 9.68 ± 0.79 µM against Jak2; over 45 µM against Aurora A; 1.14 ± 0.11 µM on B-Raf; over 45 µM at BCR-ABL (in vitro kinase assay); over 45 µM against ERK1; 0.48 ± 0.005 µM against IKKβ. Moreover, the concentration for half-maximal inhibition (IC50) against MEK1 was over 45 µM; on SYK, over 45 µM; in the series with Vector BaF3 cells, over 8 µM; in the series on BCR-ABL MEF cells it was 3.46 µM. The “concentration needed to inhibit BCR-ABL in in vitro kinase assays” value at BCR-ABL came out at 45 µM. The p53 expression result in the series with p53 in HCT116 cells is “induce p53 expression”. In series [1], the “concentrations at which the compound seemed to precipitate in cell cultures” value was “greater than 10 μM”. The “lifespan of the mice” value in [2] and in series [3] was “extend the lifespan” each time. For the same compound, the cell cycle profile result in the series on HCT116 cells is “increase in G2/M phase cells and a decrease in S phase cells”. Besides, the “cytotoxic effect (in words)” value in the series with BCR-ABL BaF3 cells is listed as “most potent one”. Moreover, the p53 protein up-regulation entry in the series with p53 in primary MEFs is on record as “up-regulate p53 at the protein levels”. Further, the “inhibitory effect on BCR-ABL activity in vivo (in cells)” value with BCR-ABL in BaF3 cells is “negligible inhibitory effect”.

The values are drawn from paper PMC5342526, “Identification of Bisindolylmaleimide IX as a potential agent to treat drug-resistant BCR-ABL positive leukemia” (Oncotarget, 2016).
